Experimental data taken from the NIST ThermoML archive (doi:10.1021/je200369m).
Where “and” joins values, the source holds several entries; their conditions need not be identical. Identical values can stand only once. Numbers after ± are expanded uncertainties.

Settings: for mass density: Fluid (supercritical or subcritical phases), Buoyancy - hydrostatic balance with magnetic suspension - two sinkers; for vapor or sublimation pressure: Liquid, Closed cell

## C=C(F)C(F)(F)F [2,3,3,3-tetrafluoro-1-propene]
232.01 K, 1003.6 kPa
  mass density: 1297.66 ± 0.16 kg/m3
235.01 K, 1354.4 kPa
  mass density: 1290.57 ± 0.16 kg/m3
240.01 K, 1309.7 kPa
  mass density: 1276.93 ± 0.16 kg/m3
240.01 K, 5597.9 kPa
  mass density: 1288.72 ± 0.16 kg/m3
245 K, 5368.7 kPa
  mass density: 1275.09 ± 0.16 kg/m3
250 K, 2009.3 kPa
  mass density: 1251.5 ± 0.16 kg/m3
250 K, 9475.2 kPa
  mass density: 1273.53 ± 0.16 kg/m3
250 K
  vapor or sublimation pressure: 133.03 ± 0.07 kPa and 133.37 ± 0.07 kPa
255 K, 5782.7 kPa
  mass density: 1249.79 ± 0.16 kg/m3
260 K, 1001.4 kPa
  mass density: 1219.36 ± 0.16 kg/m3
260 K, 9586.2 kPa
  mass density: 1248.32 ± 0.16 kg/m3
260 K
  vapor or sublimation pressure: 197.44 ± 0.08 kPa
265 K, 3824.7 kPa
  mass density: 1215.48 ± 0.15 kg/m3
270 K, 1753.3 kPa
  mass density: 1192.46 ± 0.15 kg/m3
270 K, 7264.8 kPa
  mass density: 1214.11 ± 0.16 kg/m3
270 K
  vapor or sublimation pressure: 283.41 ± 0.08 kPa and 283.03 ± 0.08 kPa and 283.48 ± 0.08 kPa
275 K, 4931.1 kPa
  mass density: 1190.99 ± 0.15 kg/m3
280 K, 1780.9 kPa
  mass density: 1161.43 ± 0.15 kg/m3
280 K, 8123.4 kPa
  mass density: 1189.71 ± 0.15 kg/m3
280 K
  vapor or sublimation pressure: 395.91 ± 0.1 kPa
285 K, 4675.9 kPa
  mass density: 1160.07 ± 0.15 kg/m3
290 K, 1604.8 kPa
  mass density: 1127.36 ± 0.15 kg/m3
290 K, 7579.1 kPa
  mass density: 1158.85 ± 0.15 kg/m3
290 K
  vapor or sublimation pressure: 538.95 ± 0.11 kPa and 539.38 ± 0.11 kPa and 539.42 ± 0.11 kPa
295 K, 4198.6 kPa
  mass density: 1126 ± 0.15 kg/m3
300 K, 1079.2 kPa
  mass density: 1087.77 ± 0.14 kg/m3
300 K, 6812.1 kPa
  mass density: 1124.85 ± 0.15 kg/m3
300 K
  vapor or sublimation pressure: 718.68 ± 0.12 kPa
305 K, 3364.3 kPa
  mass density: 1086.43 ± 0.14 kg/m3
309.99 K, 5673.9 kPa
  mass density: 1085.35 ± 0.14 kg/m3
309.99 K
  vapor or sublimation pressure: 938.57 ± 0.15 kPa
310 K, 1004 kPa
  mass density: 1047.05 ± 0.14 kg/m3
310 K
  vapor or sublimation pressure: 939.28 ± 0.15 kPa and 939.3 ± 0.15 kPa
312 K
  vapor or sublimation pressure: 989.09 ± 0.15 kPa
314 K
  vapor or sublimation pressure: 1040.9 ± 0.15 kPa
314.99 K, 2511.7 kPa
  mass density: 1041.01 ± 0.14 kg/m3
316 K
  vapor or sublimation pressure: 1094.4 ± 0.16 kPa
319.99 K, 553.9 kPa
  mass density: 26.402 ± 0.006 kg/m3
319.99 K
  vapor or sublimation pressure: 1206.8 ± 0.17 kPa and 1207 ± 0.17 kPa and 1206.4 ± 0.17 kPa
320 K, 973.2 kPa
  mass density: 51.726 ± 0.009 kg/m3
320 K, 4518 kPa
  mass density: 1040.05 ± 0.14 kg/m3
320 K
  vapor or sublimation pressure: 1207.6 ± 0.17 kPa and 1207.7 ± 0.17 kPa
325 K, 1456.3 kPa
  mass density: 982.689 ± 0.13 kg/m3
329.99 K, 574 kPa
  mass density: 26.306 ± 0.006 kg/m3
330 K, 979.2 kPa
  mass density: 49.047 ± 0.009 kg/m3
330 K, 985.9 kPa
  mass density: 49.464 ± 0.009 kg/m3
330 K, 3108.2 kPa
  mass density: 981.791 ± 0.13 kg/m3
330 K
  vapor or sublimation pressure: 1529 ± 0.19 kPa
335 K, 1592.5 kPa
  mass density: 92.726 ± 0.014 kg/m3
335 K, 1798 kPa
  mass density: 932.524 ± 0.12 kg/m3
335 K, 4770.8 kPa
  mass density: 980.976 ± 0.13 kg/m3
340 K, 593.8 kPa
  mass density: 26.211 ± 0.006 kg/m3
340 K, 980.9 kPa
  mass density: 46.55 ± 0.008 kg/m3
340 K, 993.5 kPa
  mass density: 47.298 ± 0.008 kg/m3
340 K, 1640.5 kPa
  mass density: 92.612 ± 0.014 kg/m3
340 K, 1827.8 kPa
  mass density: 110.941 ± 0.017 kg/m3
340 K, 3191.5 kPa
  mass density: 931.599 ± 0.12 kg/m3
340 K
  vapor or sublimation pressure: 1910.2 ± 0.23 kPa
345 K, 4594.1 kPa
  mass density: 930.707 ± 0.12 kg/m3
350 K, 613.2 kPa
  mass density: 26.12 ± 0.006 kg/m3
350 K, 985.9 kPa
  mass density: 44.652 ± 0.008 kg/m3
350 K, 1003 kPa
  mass density: 45.555 ± 0.008 kg/m3
350 K, 1736.8 kPa
  mass density: 92.623 ± 0.014 kg/m3
350 K, 2261.9 kPa
  mass density: 146.58 ± 0.021 kg/m3
350 K, 2461 kPa
  mass density: 839.342 ± 0.11 kg/m3
350 K, 6005.4 kPa
  mass density: 929.873 ± 0.12 kg/m3
350 K
  vapor or sublimation pressure: 2361.4 ± 0.26 kPa
355 K, 2740.3 kPa
  mass density: 801.182 ± 0.11 kg/m3
355 K
  vapor or sublimation pressure: 2616.5 ± 0.29 kPa
360 K, 632.4 kPa
  mass density: 26.029 ± 0.006 kg/m3
360 K, 987.2 kPa
  mass density: 42.763 ± 0.008 kg/m3
360 K, 1005.2 kPa
  mass density: 43.637 ± 0.008 kg/m3
360 K, 1830.5 kPa
  mass density: 92.622 ± 0.014 kg/m3
360 K, 2067 kPa
  mass density: 110.845 ± 0.017 kg/m3
360 K, 2433.6 kPa
  mass density: 146.594 ± 0.021 kg/m3
360 K, 2545.4 kPa
  mass density: 160.529 ± 0.023 kg/m3
360 K, 2767.9 kPa
  mass density: 197.534 ± 0.028 kg/m3
360 K, 3210.5 kPa
  mass density: 772.483 ± 0.1 kg/m3
360 K, 3638.8 kPa
  mass density: 800.559 ± 0.11 kg/m3
360 K
  vapor or sublimation pressure: 2893.8 ± 0.31 kPa
362 K, 2963.7 kPa
  mass density: 235.115 ± 0.033 kg/m3
362 K
  vapor or sublimation pressure: 3011.5 ± 0.32 kPa
364 K
  vapor or sublimation pressure: 3133.6 ± 0.34 kPa
365 K, 991.9 kPa
  mass density: 42.073 ± 0.008 kg/m3
365 K, 1876.6 kPa
  mass density: 92.619 ± 0.014 kg/m3
365 K, 2516.7 kPa
  mass density: 146.549 ± 0.022 kg/m3
365 K, 2892.6 kPa
  mass density: 197.483 ± 0.028 kg/m3
365 K, 3086.7 kPa
  mass density: 243.237 ± 0.034 kg/m3
365 K, 4553.7 kPa
  mass density: 799.933 ± 0.11 kg/m3
366 K
  vapor or sublimation pressure: 3260.2 ± 0.34 kPa
368 K, 3184.3 kPa
  mass density: 243.231 ± 0.034 kg/m3
370 K, 651.2 kPa
  mass density: 25.938 ± 0.006 kg/m3
370 K, 993.7 kPa
  mass density: 41.326 ± 0.008 kg/m3
370 K, 996.3 kPa
  mass density: 41.436 ± 0.008 kg/m3
370 K, 2181.6 kPa
  mass density: 110.789 ± 0.017 kg/m3
370 K, 2598.5 kPa
  mass density: 146.499 ± 0.022 kg/m3
370 K, 2866.8 kPa
  mass density: 176.561 ± 0.026 kg/m3
370 K, 3014.9 kPa
  mass density: 197.482 ± 0.028 kg/m3
370 K, 3248.6 kPa
  mass density: 243.253 ± 0.034 kg/m3
370 K, 3252.2 kPa
  mass density: 244.129 ± 0.035 kg/m3
370 K, 5480.7 kPa
  mass density: 799.34 ± 0.11 kg/m3
370.01 K, 1920.5 kPa
  mass density: 92.497 ± 0.014 kg/m3
380 K, 667.9 kPa
  mass density: 25.765 ± 0.006 kg/m3
380 K, 994.8 kPa
  mass density: 39.809 ± 0.007 kg/m3
380 K, 2293.9 kPa
  mass density: 110.737 ± 0.017 kg/m3
380 K, 3047.3 kPa
  mass density: 173.864 ± 0.025 kg/m3
380 K, 3496.1 kPa
  mass density: 231.99 ± 0.033 kg/m3
380 K, 6583.2 kPa
  mass density: 770.356 ± 0.1 kg/m3
390 K, 670.7 kPa
  mass density: 25.062 ± 0.006 kg/m3
390 K, 987.8 kPa
  mass density: 38.088 ± 0.007 kg/m3
390 K, 2404.1 kPa
  mass density: 110.68 ± 0.017 kg/m3
400 K, 683.2 kPa
  mass density: 24.785 ± 0.006 kg/m3
400 K, 991.4 kPa
  mass density: 36.952 ± 0.007 kg/m3
400 K, 2512.9 kPa
  mass density: 110.64 ± 0.017 kg/m3
